From paper PMC11324046, “Second-generation piperazine derivatives as promising radiation countermeasures” (RSC Medicinal Chemistry, 2024)

Key:
[1] = WST-1 proliferation assay, MCF-7; assay type: cell-based; conditions: human, MCF-7 cells (breast adenocarcinoma), vs 0.1% DMSO control = 100%, mean ± standard deviation
Experimental: (§1) A thorough analysis of antiproliferative activity was performed across various cell culture types representing different histotypes: leukemia (Jurkat, MOLT-4), lung adenocarcinoma (A549), colorectal adenocarcinoma (HT-29), pancreatic carcinoma (PANC-1), breast adenocarcinoma (MCF-7), osteosarcoma (SAOS-2), and one non-cancerous cell line (fetal lung fibroblasts MRC-5). The cell lines were exposed to the newly synthesized compounds at a concentration of 100 μM for 48 h in a single-dose treatment. Changes in cell proliferation compared to the vehicle 0.1% dimethyl sulfoxide (DMSO) control were determined using the WST-1 assay, which is based on mitochondrial dehydrogenase metabolic activities. […] The overall cytotoxic activity of each compound was expressed as growth percent (GP) – the mean of the proliferation of all cell lines treated with the same compound.
(§2) Selected human tumor and non-tumor cell lines Jurkat (acute T-cell leukemia), MOLT-4 (acute lymphoblastic leukemia), A549 (lung carcinoma), HT-29 (colorectal adenocarcinoma), PANC-1 (pancreas epithelioid carcinoma), MCF-7 (breast adenocarcinoma), SAOS-2 (osteosarcoma) and MRC-5 (normal lung fibroblasts) were purchased from either American Type Culture Collection (ATCC; VA, USA) or Sigma-Aldrich (St. Louis, MO, USA) and cultured according to the provider's culture method guidelines. All cell lines were maintained at 37 °C in a humidified 5% carbon dioxide and 95% air incubator. Cells in the maximum range of either 10 passages for the adherent cell lines (A549, HT-29, PANC-1, MCF-7, SAOS-2, and MRC-5), or 20 passages for suspension cell lines (Jurkat, MOLT-4,) and in an exponential growth phase were used for this study. Screening of the antiproliferative effect and growth percent calculation were conducted as follows: each cell line was seeded at previously established optimal density (1–50 × 10^3 cells per well) in a 96-well plate (TPP, Trasadingen, Switzerland) and cells were allowed to settle overnight. Cells were treated for 48 h with compounds at a final concentration of 100 μM. At the end of the cultivation period, the WST-1 proliferation assay (Roche, Basel, Switzerland) was performed according to the manufacturer's protocol. The absorbance was measured at 440 nm using a Tecan Spark multimode microplate reader (Tecan, Mannedorf, Switzerland). Each value is the mean of three independent experiments and represents the percentage of proliferation (100% cell proliferation for 0.1% DMSO mock-treated control cells). The GP value was calculated for each compound tested. GP represents the mean of the percentage proliferation decrease of all cell lines treated with the same compound.

[2] = WST-1 proliferation assay, A549; assay type: cell-based; conditions: human, A549 cells (lung carcinoma), vs 0.1% DMSO control = 100%, mean ± standard deviation
Experimental: as §1, §2

[3] = WST-1 proliferation assay, MOLT-4; assay type: cell-based; conditions: human, MOLT-4 cells (acute lymphoblastic leukemia), vs 0.1% DMSO control = 100%, mean ± standard deviation
Experimental: as §1, §2

[4] = WST-1 proliferation assay, PANC-1; assay type: cell-based; conditions: human, PANC-1 cells (pancreas epithelioid carcinoma), vs 0.1% DMSO control = 100%, mean ± standard deviation
Experimental: as §1, §2

[5] = WST-1 proliferation assay, Jurkat; assay type: cell-based; conditions: human, Jurkat cells (acute T-cell leukemia), vs 0.1% DMSO control = 100%, mean ± standard deviation
Experimental: as §1, §2

[6] = Annexin V/PI flow cytometry viability of irradiated MOLT-4 cells; assay type: cell-based, human; conditions: human, MOLT-4 cells, not irradiated, no irradiation, 24 h, read-out: Viable (annexin V/PI negative) MOLT-4 cells, compound alone; for viability at 24 h, 200 µM: representative histogram Fig. 6A
Experimental: Consequently, we investigated whether the pre-application of these substances can augment the survival of MOLT-4 cells after irradiation exposure. The radioprotective investigation utilized a leukemia MOLT-4 cell model of hematopoietic origin with flow cytometric quantification of cell viability via annexin V/propidium iodide staining.
In the following step, at 24 h after irradiation, MOLT-4 cell viability and cell death were determined by flow cytometry using an Alexa Fluor® 488 annexin V/Dead Cell Apoptosis kit (Life Technologies, Grand Island, NY, USA) following the manufacturer's instructions. The Alexa Fluor®488 annexin V/Dead Cell Apoptosis kit employs the property of Alexa Fluor®488 conjugated to annexin V to bind to phosphatidylserine in the presence of Ca^2+; and the ability of propidium iodide to enter cells with damaged cell membranes and bind to DNA. For each sample, a minimum of 20 000 events were acquired using a CytoFLEX LX flow cytometer (Beckman Coulter, Miami, FL, USA). List mode data were analyzed using Kaluza Analysis 2.1 software (Beckman Coulter, Miami, FL, USA).

[7] = 100 μM, representative histogram Fig. 5A

| Structure (SMILES) | viability at 48 h, 100 µM [1] [%] | viability at 48 h, 100 µM [2] [%] | viability at 48 h, 100 µM [3] [%] | viability at 48 h, 100 µM [4] [%] | viability at 48 h, 100 µM [5] [%] | viability at 24 h, 100 µM [6, 7] [%] | viability at 24 h, 200 µM [6] [%] | viability at 2 h, 100 µM [6, 7] [%] |
| --- | --- | --- | --- | --- | --- | --- | --- | --- |
| COc1ccc(OCC(O)CN2CCN(CCO)CC2)c([N+](=O)[O-])c1 (centres unmarked) [Compound 2, 1-(4-(2-Hydroxyethyl)piperazin-1-yl)-3-(4-methoxy-2-nitrophenoxy)propan-2-ol] | 97 ± 8 | 111 ± 11 | 90 ± 7 | 104 ± 3 | 98 ± 3 |  |  |  |
| NCCCNCCSP(=O)(O)O [WR2721, amifostine, reference compound] | 7 ± 2 | 5 | 71 ± 21 | 8 ± 4 | 10 ± 12 | 83 | 83 |  |
| O=[N+]([O-])c1ccc(OCC(O)CN2CCN(CCO)CC2)c(F)c1 (centres unmarked) [Compound 3, 1-(4-(2-Hydroxyethyl)piperazin-1-yl)-3-(2-fluoro-4-nitrophenoxy)propan-2-ol] | 91 ± 12 | 106 ± 11 | 84 ± 11 | 90 ± 4 | 92 ± 4 |  |  |  |
| OCCN1CCN(CC(O)COc2cccc(Cl)c2)CC1 (centres unmarked) [Compound 6, 1-(4-(2-Hydroxyethyl)piperazin-1-yl)-3-(3-chlorophenoxy)propan-2-ol] | 86 ± 12 | 99 ± 11 | 89 ± 16 | 94 ± 3 | 89 ± 5 |  |  |  |
| COc1cc([N+](=O)[O-])ccc1OCC(O)CN1CCN(CCO)CC1 (centres unmarked) [Compound 1, 1-(4-(2-Hydroxyethyl)piperazin-1-yl)-3-(2-methoxy-4-nitrophenoxy)propan-2-ol] | 100 ± 9 | 112 ± 8 | 92 ± 8 | 108 ± 3 | 91 ± 2 |  |  |  |
| O=[N+]([O-])c1cc(OCC(O)CN2CCN(CCO)CC2)ccc1Cl (centres unmarked) [Compound 5, 1-(4-(2-Hydroxyethyl)piperazin-1-yl)-3-(4-chloro-3-nitrophenoxy)propan-2-ol] | 104 ± 11 | 109 ± 9 | 84 ± 8 | 100 ± 3 | 85 ± 3 |  |  |  |
| NCCCNCCS [WR1065, reference compound] | 2 | 3 | 3 ± 3 | 3 ± 1 | 1 |  | 18 | 64 |
| OCCN1CCN(CC(O)COc2ccc(F)cc2)CC1 (centres unmarked) [Compound 4, 1-(4-(2-Hydroxyethyl)piperazin-1-yl)-3-(4-fluorophenoxy)propan-2-ol] | 102 ± 5 | 112 ± 14 | 102 ± 16 | 97 ± 1 | 100 ± 3 |  |  |  |
